Among the data in ChEMBL document CHEMBL5614396, “Structure-Activity Relationship Studies in Benzothiadiazoles as Novel Vaccine Adjuvants” (J Med Chem, 2024) are Activity and viability values, retold here.

Active and inactive are the calls of the source. The rule behind the calls is not given here.

Series [1] deals with Mus musculus. Kind of series: Vaccine adjuvant activity against ovalbumin-immunized BALB/c mouse assessed as increase in anti-OVA specific IgG titer in serum at 200 nmol, im co-administered with ovalbumin on day 0 and day 21 and measured on day 28 by ELISA. It counts as functional, organism-based. To be noted: time 29.0 day. A general note: An ELISA detects its analyte on a solid surface through an enzyme-linked reagent.

The test system of series [2] is THP-1. Kind of series: Vaccine adjuvant activity in human THP-1 cells expressing CD63-Turbo-luciferase and CD9-Emerald green fluorescent protein reporter assessed as extracellular vesicle release by measuring reporter activation at 10 uM incubated for 48 hrs by TurboLuc luciferase based chemiluminescence assay (reference value: 0%). Format: functional.
Series [3] deals with BMDC. Briefly: Vaccine adjuvant activity in Balb/c mouse BMDC assessed as induction of Ca2+ influx at 10 uM by Fura-2/8-AM dye based fluorescence analysis (reference value: 0%). Format: functional.
Series [4] relates to BMDC. Briefly: Vaccine adjuvant activity in Balb/c mouse BMDC assessed as increase in IL-12 production at 10 uM incubated for 20 hrs by ELISA (reference value: 1.35 +/-0.1 ng/ml). Format: functional.
A short description of series [5]: Cytotoxicity against Balb/c mouse BMDC assessed as cell viability at 10 uM incubated for 20 hrs by MTT assay (reference value: 100 +/-0.6%). It counts as toxicity, cell-based. The note with it: BMDC (bone marrow-derived dendritic cells), read-out: Activity. (In general: Tetrazolium assays rely on reduction of a dye to a coloured formazan, in cell work by metabolically active cells.)

The test system of series [6] is Mus musculus. Briefly: Vaccine adjuvant activity against ovalbumin-immunized BALB/c mouse assessed as induction of antigen-specific Th2 immune responses by measuring increase in anti-OVA specific IgG1 titer in serum at 200 nmol, im co-administered with ovalbumin on day 0 and day 21 and measured on day 28 by ELISA. Format: functional, organism-based. To be noted: time 29.0 day.

Series [7] is described as follows: Toxicity in ovalbumin-immunized BALB/c mouse assessed as weight loss at 200 nmol, im co-administered with ovalbumin on day 0 and day 21. It counts as organism-based. To be noted: in vivo, 528 h, time 22 day.
Series [8] in a line: Toxicity in ovalbumin-immunized BALB/c mouse assessed as behavioural changes at 200 nmol, im co-administered with ovalbumin on day 0 and day 21. To be noted: in vivo, 528 h, time 22 day. It counts as organism-based.
Series [9] concerns Mus musculus. Briefly: Immunostimulatory activity in BALB/c mouse assessed as increase in serum CXCL-1 level at 200 nmol, im and measured after 2 to 6 hrs by ELISA. It counts as functional, organism-based. The note with it: time 2-6 hrs.
Series [10] relates to Mus musculus. Briefly: Immunostimulatory activity in BALB/c mouse assessed as increase in serum CXCL-1 level at 200 nmol, im and measured after 24 hrs by ELISA. It counts as functional, organism-based.
The subject of series [11] is Mus musculus. Briefly: Immunostimulatory activity in BALB/c mouse assessed as increase in serum CCL-4 level at 1 ug, im and measured after 2 hrs by multiplex Luminex beads assay. It counts as functional, organism-based. The note with it: dose 1.0 µg.
Series [12] relates to Mus musculus. Briefly: Immunostimulatory activity in BALB/c mouse assessed as increase in serum CCL-2 level at 1 ug, im and measured after 2 hrs by multiplex Luminex beads assay. Format: functional, organism-based. The note with it: dose 1.0 µg.
Series [13] concerns Mus musculus. Briefly: Immunostimulatory activity in BALB/c mouse assessed as increase in serum IL-6 level at 1 ug, im and measured after 2 hrs by multiplex Luminex beads assay. Format: functional, organism-based. The note with it: dose 1.0 µg.
Series [14] relates to Mus musculus. Briefly: Immunostimulatory activity in BALB/c mouse assessed as increase in serum CXCL-1 level at 1 ug, im and measured after 2 hrs by ELISA. Format: functional, organism-based. The note with it: dose 1.0 µg.
Series [15] concerns Mus musculus. Briefly: Immunostimulatory activity in BALB/c mouse assessed as increase in serum CXCL-10 level at 1 ug, im and measured after 6 hrs by multiplex Luminex beads assay. Format: functional, organism-based. To be noted: dose 1.0 µg.
For series [16], the system named is Mus musculus. Briefly: Immunostimulatory activity in BALB/c mouse assessed as increase in serum CCL-4 level at 1 ug, im and measured after 24 hrs by multiplex Luminex beads assay. It counts as functional, organism-based. To be noted: dose 1.0 µg.
The subject of series [17] is Mus musculus. Kind of series: Immunostimulatory activity in BALB/c mouse assessed as increase in serum CCL-2 level at 1 ug, im and measured after 24 hrs by multiplex Luminex beads assay. To be noted: dose 1.0 µg. It counts as functional, organism-based.
The test system of series [18] is Mus musculus. Kind of series: Immunostimulatory activity in BALB/c mouse assessed as increase in serum IL-6 level at 1 ug, im and measured after 24 hrs by multiplex Luminex beads assay. Format: functional, organism-based. To be noted: dose 1.0 µg.
The test system of series [19] is Mus musculus. Kind of series: Immunostimulatory activity in BALB/c mouse assessed as increase in serum CXCL-1 level at 1 ug, im and measured after 24 hrs by ELISA. Format: functional, organism-based. The note with it: dose 1.0 µg.

As for `CCOC(=O)c1c(NS(=O)(=O)c2cccc3n[se]nc23)sc(C)c1C`, the result in series [1] and in series [6] was Active. The Activity in series [2] was 210.4%; in [3] it was 147.5%; in series [4], 3.11 ng/mL; in series [7], “Non-Toxic”; in series [8] it was “Non-Toxic”. Moreover, in [5], the viability at 20 h, 10 µM was 109%.
For the compound `CCOC(=O)c1c(NS(=O)(=O)c2cccc3nsnc23)sc(C)c1C`, the outcome in [1] and in series [9] was Active. For the same compound, the Activity in [2] was 100%; in series [3] it was 100%; in series [4] it was 1.78 ng/mL; in [7] it was “Non-Toxic”; in series [8], “Non-Toxic”. Moreover, in series [5], the viability at 20 h, 10 µM stood at 114%. The outcome in series [10] was inactive.
As for `CCCCCCCCCCCCCC(=O)O[C@H](CCCCCCCCCCC)CC(=O)N[C@H]1[C@H](OC[C@H]2O[C@H](O)[C@H](NC(=O)C[C@H](O)CCCCCCCCCCC)[C@@H](OC(=O)C[C@H](O)CCCCCCCCCCC)[C@@H]2O)O[C@H](CO)[C@@H](OP(=O)(O)O)[C@@H]1OC(=O)C[C@@H](CCCCCCCCCCC)OC(=O)CCCCCCCCCCCCC`, the result in [11], in series [12], in series [13], in series [14] and in [15] was Active. Besides, the result in [16], in series [17], in [18] and in [19] was inactive.
Consider `CCOC(=O)c1c(NS(=O)(=O)c2cccc3nccnc23)sc(C)c1C`, for which the outcome in [1] and in series [6] was Active. The Activity is 113.3% in series [2]; 122% in series [3]; 4.12 ng/mL in [4]; “Non-Toxic” in series [7]; “Non-Toxic” in [8]. Besides, the viability at 20 h, 10 µM in series [5] amounted to 181%.
Turning to `CCOC(=O)c1c(NC(=O)c2cccc3nsnc23)sc(C)c1C`, the Activity was -0.4% in series [2], -5.4% in [3] and 1.37 ng/mL in series [4]. Also, in series [5], the viability at 20 h, 10 µM was found to be 59.1%. The outcome in series [9] was Active. For the same compound, the outcome in series [10] was inactive.
For `CCOC(=O)c1c(NS(=O)(=O)c2cccc3ccccc23)sc(C)c1C`, the Activity is 5.2% in series [2]; -14.1% in [3]; 1.37 ng/mL in series [4]; “Non-Toxic” in series [7]; “Non-Toxic” in series [8]. Also, the viability at 20 h, 10 µM in [5] is 111%.
Regarding `CCOC(=O)c1c(NS(=O)(=O)c2ccccc2)sc(C)c1C`, the outcome in series [1] was inactive. The Activity in series [2] is 0.7%; in [3] it was -10.9%; in series [4] it was 1.16 ng/mL. Further, the viability at 20 h, 10 µM in series [5] came to 102%.
As to `CCOC(=O)c1c(NS(=O)(=O)c2cccc3nsnc23)sc(-c2ccccc2)c1C`, the outcome in [1], in series [9] and in series [6] was Active. The Activity in series [2] is 338.9%; in series [3], 115.7%; in [4] it was 3.79 ng/mL; in series [7], “Non-Toxic”; in series [8], “Non-Toxic”. In addition, the viability at 20 h, 10 µM in [5] worked out at 136%. The outcome in series [10] was inactive.
For `Cc1sc(NS(=O)(=O)c2cccc3nsnc23)c(-c2nc(C#N)no2)c1C`, the result in [1] was inactive. For the same compound, the Activity in series [2] was 1.5%; in series [3] it was -7%; in series [4], 1.59 ng/mL; in [7], “Non-Toxic”; in [8], “Non-Toxic”. In addition, in series [5], the viability at 20 h, 10 µM amounted to 97.6%.
Consider `CCOC(=O)c1c(NS(=O)(=O)c2cccc3nsnc23)sc(-c2ccco2)c1C`, for which the Activity in series [2] was determined as 67.1%; in [3], 134.2%; in series [4], 2.56 ng/mL. Also, the viability at 20 h, 10 µM in [5] is 98.7%.
For `CCOC(=O)c1c(NS(=O)(=O)c2cccc3c2NCCN3)sc(C)c1C`, in that order: 2.7%, 2%, 1.06 ng/mL and 89.3%.
Taken in the same sequence, the figures for `Cc1sc(NS(=O)(=O)c2cccc3nsnc23)c(C(=O)OCCC(C)C)c1C` were 141.6%, 262.4%, 2.87 ng/mL and 81.2%.
For `CCOC(=O)c1cc(C)sc1NS(=O)(=O)c1cccc2nsnc12`, in that order: 106.9%, 78.5%, 0.81 ng/mL and 93%.
For `CCOC(=O)c1c(NS(=O)(=O)c2ccc(Br)c3ccncc23)sc(C)c1C`, the Activity in series [2] is 16.1%; in series [3] it was -9.4%; in series [4] it was 1.12 ng/mL. Also, the viability at 20 h, 10 µM in [5] worked out at 82.7%.
With `CCOC(=O)c1c(NS(=O)(=O)c2cccc3nsnc23)sc(C)c1-c1ccccc1`, the Activity is 49.6% in series [2], 69.1% in series [3] and 1.45 ng/mL in series [4]. In [5], the viability at 20 h, 10 µM was found to be 94.2%.
For `CCOC(=O)c1c(NS(=O)(=O)c2cccc3nsnc23)sc2c1CCC2`, in that order: 94.9%, 121%, 1.85 ng/mL and 127%.
For the compound `CCc1noc(-c2c(NS(=O)(=O)c3cccc4nsnc34)sc(C)c2C)n1`, the Activity is 0.4% in series [2], -3.1% in [3] and 1.71 ng/mL in [4]. Also, the viability at 20 h, 10 µM in [5] was found to be 65.9%.
With `Cc1sc(NS(=O)(=O)c2cccc3nsnc23)c(C(=O)OC2CCCCC2)c1C`, the outcome in [1], in series [9] and in series [6] was Active. In addition, the Activity in series [2] is 213%; in series [3] it was 177.8%; in series [4], 3.08 ng/mL; in series [7], “Non-Toxic”; in series [8], “Non-Toxic”. Also, the viability at 20 h, 10 µM in series [5] was 102%. The outcome in series [10] was inactive.
Regarding `CCOC(=O)c1ncsc1NS(=O)(=O)c1cccc2nsnc12`, the Activity in series [2] was 1.3%; in series [3] it was -6.4%; in series [4], 1.04 ng/mL. Further, the viability at 20 h, 10 µM in series [5] turned out to be 91.3%.
For `CCOC(=O)c1c(NS(=O)(=O)c2ccc3nsnc3c2)sc(C)c1C`, in that order: 0.2%, -12.7%, 0.63 ng/mL and 93.1%.
Taken in the same sequence, the figures for `CCOC(=O)c1c(NS(=O)(=O)c2cccc3nonc23)sc(C)c1C` were 4.7%, -12.5%, 1.47 ng/mL and 105%.
